Data as given in ChEMBL document CHEMBL3526033, “Identification of human liver cytochrome P450 enzymes involved in the metabolism of SCH 530348 (Vorapaxar), a potent oral thrombin protease-activated receptor 1 antagonist” (Drug Metab Dispos, 2011).
Each block holds one molecule with its values, some of them ahead of it.

Tests used:
Format in all cases: ADME
[1] = molecular target: T1, Cytochrome P450 3A5 (Homo sapiens, UniProt P20815); assay: Activity of human recombinant CYP3A5 assessed as enzyme-mediated 2-hydroxyethyl (1R,3aR,4aR,6R,8aR,9S,9aS)-9-((E)-2-(5-(3-fluorophenyl)pyridin-2-yl)vinyl)-1-methyl-3-oxododecahydronaphtho[2,3-c]furan-6-ylcarbamate formation at 25 uM after 120 mins by LC-MS/MS analysis in presence of NADPH; conditions: 2 h
T1 sequence (P20815 whole entry): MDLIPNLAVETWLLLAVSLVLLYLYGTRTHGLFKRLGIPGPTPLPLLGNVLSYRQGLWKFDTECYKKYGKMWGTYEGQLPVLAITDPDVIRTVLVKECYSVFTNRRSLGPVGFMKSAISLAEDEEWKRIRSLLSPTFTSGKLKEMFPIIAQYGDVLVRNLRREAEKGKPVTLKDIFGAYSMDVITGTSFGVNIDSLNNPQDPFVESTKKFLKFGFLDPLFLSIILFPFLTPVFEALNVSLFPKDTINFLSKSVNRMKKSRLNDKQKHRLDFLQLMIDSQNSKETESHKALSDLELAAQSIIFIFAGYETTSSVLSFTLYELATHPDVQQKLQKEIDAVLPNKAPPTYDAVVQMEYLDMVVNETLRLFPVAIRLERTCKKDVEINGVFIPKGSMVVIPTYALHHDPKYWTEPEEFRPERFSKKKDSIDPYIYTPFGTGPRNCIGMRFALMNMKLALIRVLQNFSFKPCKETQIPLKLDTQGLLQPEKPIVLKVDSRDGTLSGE

[2] = molecular target: Cytochrome P450 2C9 (Homo sapiens, UniProt P11712); assay: Activity of human recombinant CYP2C9 assessed as enzyme-mediated drug metabolism at 10 uM after 120 mins by LC-MS/MS analysis; conditions: 2 h
Cytochrome P450 2C9, sequence (P11712 whole entry): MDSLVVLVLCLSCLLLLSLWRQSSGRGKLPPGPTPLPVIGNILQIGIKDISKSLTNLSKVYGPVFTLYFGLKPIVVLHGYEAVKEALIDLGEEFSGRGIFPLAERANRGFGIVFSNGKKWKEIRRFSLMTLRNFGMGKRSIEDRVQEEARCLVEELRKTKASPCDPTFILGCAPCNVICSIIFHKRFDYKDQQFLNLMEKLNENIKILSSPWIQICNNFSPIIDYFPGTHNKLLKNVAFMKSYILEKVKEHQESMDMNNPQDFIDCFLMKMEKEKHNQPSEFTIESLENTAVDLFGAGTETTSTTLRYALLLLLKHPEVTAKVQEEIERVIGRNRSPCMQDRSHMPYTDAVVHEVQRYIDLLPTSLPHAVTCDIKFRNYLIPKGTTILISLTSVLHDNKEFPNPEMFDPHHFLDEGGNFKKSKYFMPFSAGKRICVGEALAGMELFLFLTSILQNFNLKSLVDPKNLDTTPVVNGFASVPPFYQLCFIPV

[3] = test system: Liver microsome; assay: Intrinsic clearance in human liver microsomes assessed as (3R,3aS,4S,4aR,7R,8aR,9aR)-7-amino-4-((E)-2-(5-(3-fluorophenyl)pyridin-2-yl)vinyl)-3-methyldecahydronaphtho[2,3-c]furan-1(3H)-one formation by measuring Vmax/Km per nmol of enzyme after 120 mins by LC-MS/MS analysis; conditions: 2 h
[4] = molecular target: T2, Cytochrome P450 1A1 (Homo sapiens, UniProt P04798); assay: Activity of human recombinant CYP1A1 assessed as enzyme-mediated drug metabolism at 10 uM after 120 mins by LC-MS/MS analysis; conditions: 2 h
T2 sequence (P04798 whole entry): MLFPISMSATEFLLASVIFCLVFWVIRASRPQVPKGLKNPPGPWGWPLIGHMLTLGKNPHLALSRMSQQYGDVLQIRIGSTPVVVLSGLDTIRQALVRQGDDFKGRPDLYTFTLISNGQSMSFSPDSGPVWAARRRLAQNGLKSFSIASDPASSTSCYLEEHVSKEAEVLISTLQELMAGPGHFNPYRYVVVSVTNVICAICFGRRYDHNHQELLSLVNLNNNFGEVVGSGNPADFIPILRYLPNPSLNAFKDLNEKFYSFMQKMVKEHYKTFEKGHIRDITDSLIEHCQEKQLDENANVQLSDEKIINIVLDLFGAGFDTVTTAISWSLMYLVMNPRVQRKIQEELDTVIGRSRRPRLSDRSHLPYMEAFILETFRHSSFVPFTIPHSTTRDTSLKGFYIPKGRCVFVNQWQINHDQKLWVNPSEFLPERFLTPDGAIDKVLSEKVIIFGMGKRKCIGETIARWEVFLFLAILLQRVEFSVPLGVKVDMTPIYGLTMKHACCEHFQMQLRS

[5] = molecular target: T3, Cytochrome P450 2J2 (Homo sapiens, UniProt P51589); assay: Activity of human recombinant CYP2J2 assessed as enzyme-mediated 2-hydroxyethyl (1R,3aR,4aR,6R,8aR,9S,9aS)-9-((E)-2-(5-(3-fluorophenyl)pyridin-2-yl)vinyl)-1-methyl-3-oxododecahydronaphtho[2,3-c]furan-6-ylcarbamate formation at 25 uM after 120 mins by LC-MS/MS analysis in presence of NADPH; conditions: 2 h
T3 sequence (P51589 whole entry): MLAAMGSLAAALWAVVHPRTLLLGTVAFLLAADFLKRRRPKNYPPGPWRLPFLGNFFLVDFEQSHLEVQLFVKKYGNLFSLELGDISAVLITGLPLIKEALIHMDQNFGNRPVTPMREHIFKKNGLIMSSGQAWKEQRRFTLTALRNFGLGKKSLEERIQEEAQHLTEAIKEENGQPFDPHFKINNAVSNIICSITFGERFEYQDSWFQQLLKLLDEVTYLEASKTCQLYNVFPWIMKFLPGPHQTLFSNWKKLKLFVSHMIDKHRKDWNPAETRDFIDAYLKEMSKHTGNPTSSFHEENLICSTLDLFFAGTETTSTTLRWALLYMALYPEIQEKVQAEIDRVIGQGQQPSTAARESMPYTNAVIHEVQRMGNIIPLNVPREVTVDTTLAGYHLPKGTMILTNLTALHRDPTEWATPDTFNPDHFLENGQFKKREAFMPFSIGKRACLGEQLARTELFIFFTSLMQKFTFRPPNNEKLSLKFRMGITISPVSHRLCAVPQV

[6] = molecular target: T1, Cytochrome P450 3A5; assay: Activity of human recombinant CYP3A5 assessed as enzyme-mediated drug metabolism at 10 uM after 120 mins by LC-MS/MS analysis; conditions: 2 h
[7] = molecular target: Cytochrome P450 2D6 (Homo sapiens, UniProt P10635); assay: Activity of human recombinant CYP2D6 assessed as enzyme-mediated 2-hydroxyethyl (1R,3aR,4aR,6R,8aR,9S,9aS)-9-((E)-2-(5-(3-fluorophenyl)pyridin-2-yl)vinyl)-1-methyl-3-oxododecahydronaphtho[2,3-c]furan-6-ylcarbamate formation at 25 uM after 120 mins by LC-MS/MS analysis in presence of NADPH; conditions: 2 h
Cytochrome P450 2D6, sequence (P10635 whole entry): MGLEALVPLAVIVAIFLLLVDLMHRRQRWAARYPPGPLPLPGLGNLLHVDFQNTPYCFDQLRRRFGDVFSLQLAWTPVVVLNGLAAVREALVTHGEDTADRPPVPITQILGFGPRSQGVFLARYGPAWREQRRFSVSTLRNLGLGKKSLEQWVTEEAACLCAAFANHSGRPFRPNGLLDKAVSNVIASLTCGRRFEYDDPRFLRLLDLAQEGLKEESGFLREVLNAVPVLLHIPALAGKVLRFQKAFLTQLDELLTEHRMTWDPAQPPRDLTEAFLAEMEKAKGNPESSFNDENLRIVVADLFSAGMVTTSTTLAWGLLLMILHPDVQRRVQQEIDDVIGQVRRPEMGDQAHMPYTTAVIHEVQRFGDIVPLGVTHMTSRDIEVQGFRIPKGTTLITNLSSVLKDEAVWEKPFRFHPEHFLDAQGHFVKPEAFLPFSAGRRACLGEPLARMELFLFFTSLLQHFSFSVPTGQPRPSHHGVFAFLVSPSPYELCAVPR

[8] = molecular target: Cytochrome P450 4F2 (Homo sapiens, UniProt P78329); assay: Activity of human recombinant CYP4F2 assessed as enzyme-mediated drug metabolism treated with 25 uM vorapaxar after 120 mins by LC-MS/MS analysis in presence of NADPH; conditions: 2 h
Cytochrome P450 4F2, sequence (P78329 whole entry): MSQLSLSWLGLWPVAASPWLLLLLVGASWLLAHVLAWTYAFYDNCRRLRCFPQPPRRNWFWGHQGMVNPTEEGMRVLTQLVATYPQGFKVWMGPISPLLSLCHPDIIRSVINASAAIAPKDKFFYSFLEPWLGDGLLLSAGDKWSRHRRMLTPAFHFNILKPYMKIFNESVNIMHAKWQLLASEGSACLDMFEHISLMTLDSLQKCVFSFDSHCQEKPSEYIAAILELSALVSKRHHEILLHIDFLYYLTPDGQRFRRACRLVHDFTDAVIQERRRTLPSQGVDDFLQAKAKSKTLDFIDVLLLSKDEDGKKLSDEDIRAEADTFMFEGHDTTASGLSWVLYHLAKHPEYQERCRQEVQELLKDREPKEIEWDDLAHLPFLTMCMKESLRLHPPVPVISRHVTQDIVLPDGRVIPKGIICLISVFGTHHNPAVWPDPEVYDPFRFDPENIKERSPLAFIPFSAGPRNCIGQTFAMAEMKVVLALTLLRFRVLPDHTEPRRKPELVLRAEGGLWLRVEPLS

[9] = Drug level in human intestine microsomes treated with 25 uM vorapaxar after 120 mins by LC-MS/MS analysis in presence of NADPH; conditions: 2 h
[10] = test system: Liver microsome; assay: Drug metabolism in human liver microsomes assessed as (3R,3aS,4S,4aR,7R,8aR,9aR)-7-amino-4-((E)-2-(5-(3-fluorophenyl)pyridin-2-yl)vinyl)-3-methyldecahydronaphtho[2,3-c]furan-1(3H)-one formation at 10 to 25 uM after 120 mins by LC-MS/MS analysis in presence of orphenadrine; conditions: 2 h
[11] = test system: Liver microsome; assay: (§1) Drug metabolism in human liver microsomes assessed as 2-hydroxyethyl (1R,3aR,4aR,6R,8aR,9S,9aS)-9-((E)-2-(5-(3-fluorophenyl)pyridin-2-yl)vinyl)-1-methyl-3-oxododecahydronaphtho[2,3-c]furan-6-ylcarbamate formation at 25 uM after 120 mins by LC-MS/MS analysis in presence of ketoconazole; conditions: 2 h
[12] = test system: Liver microsome; assay: as §1, with “CYP3A4-specific inhibitory monoclonal antibody” for “ketoconazole”; conditions: 2 h
[13] = molecular target: T3, Cytochrome P450 2J2; assay: Drug metabolism assessed as human recombinant CYP2J2-mediated 2-hydroxyethyl (1R,3aR,4aR,6R,8aR,9S,9aS)-9-((E)-2-(5-(3-fluorophenyl)pyridin-2-yl)vinyl)-1-methyl-3-oxododecahydronaphtho[2,3-c]furan-6-ylcarbamate formation at 25 uM after 120 mins by LC-MS/MS analysis in presence of astemizole; conditions: recombinant enzyme, 2 h

Drug metabolism [1]: metabolite_detected
Drug metabolism [2]: metabolite_not_detected
CLH [3]: 2.46 µL/min
Drug metabolism [4]: metabolite_not_detected
Drug metabolism [5]: metabolite_detected
Drug metabolism [6]: metabolite_not_detected
Drug metabolism [7]: metabolite_detected
Compound: CCOC(=O)N[C@@H]1CC[C@@H]2[C@@H](C1)C[C@H]1C(=O)O[C@H](C)[C@H]1[C@H]2/C=[14CH]/c1ccc(-c2cccc(F)c2)cn1

Drug metabolism [8]: metabolite_detected
Drug metabolism [9]: metabolite_detected
Compound: C[C@H]1OC(=O)[C@@H]2C[C@@H]3C[C@H](NC(=O)OCCO)CC[C@H]3[C@H](/C=C/c3ccc(-c4cccc(F)c4)cn3)[C@H]12

Drug metabolism [10]: metabolite_not_detected
Drug metabolism [11]: metabolite_not_detected
Drug metabolism [12]: metabolite_not_detected
Drug metabolism [13]: metabolite_not_detected
Compound: CCOC(=O)N[C@@H]1CC[C@@H]2[C@@H](C1)C[C@H]1C(=O)O[C@H](C)[C@H]1[C@H]2/C=C/c1ccc(-c2cccc(F)c2)cn1 [VORAPAXAR]
